What was measured:
[1] = target: T1, aldosterone synthase (CYP11B2) (Macaca fascicularis, UniProt A0A2K5UPL9); assay: Inhibition of aldosterone synthase (cynomolgus adrenal mitochondria, aldosterone by mass spectrometry); format: biochemical, cynomolgus monkey; details: cynomolgus adrenal gland mitochondria, 2 μM corticosterone substrate, 90 minutes at 37° C.
T1 construct: cynomolgus adrenal gland mitochondria as the source of aldosterone synthase (CYP11B2); from tissue; host or cells: cynomolgus monkey adrenal gland mitochondria
T1 sequence (A0A2K5UPL9 1-503): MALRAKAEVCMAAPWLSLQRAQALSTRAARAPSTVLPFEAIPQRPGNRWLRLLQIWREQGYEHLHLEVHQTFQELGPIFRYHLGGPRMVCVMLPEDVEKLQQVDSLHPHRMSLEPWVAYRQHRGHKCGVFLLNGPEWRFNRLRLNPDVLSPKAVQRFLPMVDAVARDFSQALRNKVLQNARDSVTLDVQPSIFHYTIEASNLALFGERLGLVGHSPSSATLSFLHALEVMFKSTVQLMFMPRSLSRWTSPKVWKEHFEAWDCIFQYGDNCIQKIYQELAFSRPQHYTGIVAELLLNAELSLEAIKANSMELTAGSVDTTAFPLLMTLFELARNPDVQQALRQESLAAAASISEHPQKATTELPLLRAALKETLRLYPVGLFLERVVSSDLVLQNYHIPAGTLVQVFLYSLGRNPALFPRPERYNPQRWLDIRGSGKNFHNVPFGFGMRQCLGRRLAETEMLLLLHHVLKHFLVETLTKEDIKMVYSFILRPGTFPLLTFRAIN
How it was run: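 Cynomolgus adrenal mitochondria (50 units CYP11B2 activity) with 2 μM corticosterone in 100 mM potassium phosphate pH 7.4, 1% DMSO. Started with 1 mM NADPH, 90 min at 37° C. Aldosterone measured by mass spectrometry; IC50 from 4-parameter logistic fit, NADPH-free reactions as blank.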

[2] = target: cortisol synthase (CYP11B1) (Macaca fascicularis, UniProt A0A2K5ULY1); assay: Inhibition of cortisol synthesis (cynomolgus adrenal mitochondria, cortisol by mass spectrometry); format: biochemical, cynomolgus monkey; details: cynomolgus adrenal gland mitochondria, 11-deoxycortisol as substrate, cortisol measured as product; read-out: CYP11B1 Inhibition IC50
How it was run: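 Cynomolgus adrenal mitochondria supplied CYP11B1 (150 units) with 11-deoxycortisol as substrate, plus NADPH; cortisol product measured by mass spectrometry. Activity expressed as % of compound-free NADPH control across compound concentrations; IC50 from 4-parameter logistic fit.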

Structure (SMILES) | IC50 [1] [nM] | IC50 [2] [nM]
CN(C)C(=O)CCOc1ccc(Cc2onc3c2C(=O)CC(C)(C)C3)cc1 [Cpd 82, 3-[4-(6,6-Dimethyl-4-oxo-4,5,6,7-tetrahydro-benzo[c]isoxazol-3-ylmethyl)-phenoxy]-N,N-dimethyl-propionamide] | 44 | 4000
CC1(C)CC(=O)c2c(noc2Cc2ccc(OCCC(=O)N3CC[C@@H](O)C3)cc2)C1 [Cpd 83, 3-{4-[3-((R)-3-Hydroxy-pyrrolidin-1-yl)-3-oxo-propoxy]-benzyl}-6,6-dimethyl-6,7-dihydro-5H-benzo[c]isoxazol-4-one] | 69 | 2700
CC1(C)CC(=O)c2c(noc2Cc2ccc(OCCCC(=O)N3CC[C@@H](O)C3)cc2)C1 [Cpd 84, 3-{4-[4-((R)-3-Hydroxy-pyrrolidin-1-yl)-4-oxo-butoxy]-benzyl}-6,6-dimethyl-6,7-dihydro-5H-benzo[c]isoxazol-4-one] | 69 | 6900
CC1(C)CC(=O)c2c(noc2Cc2ccc(OCCS(C)(=N)=O)cc2)C1 (stereo not drawn) [Cpd 85, 3-[4-(2-Methanesulfoximine-ethoxy)-benzyl]-6,6-dimethyl-6,7-dihydro-5H-benzo[c]isoxazol-4-one] | 56 | 6500
CC1(C)Cc2noc(Cc3ccc(C#N)cc3)c2C(=O)O1 [Cpd 87, 4-(6,6-Dimethyl-4-oxo-6,7-dihydro-4H-pyrano[4,3-c]isoxazol-3-ylmethyl)-benzonitrile] | 220 | 77000
CC1(C)Cc2noc(Cc3ccc(F)cc3)c2C(=O)O1 [Cpd 88, 3-(4-Fluoro-benzyl)-6,6-dimethyl-6,7-dihydro-pyrano[4,3-c]isoxazol-4-one] | 190 | 25000
COc1ccc(Cc2onc3c2C(=O)OC(C)(C)C3)cc1 [Cpd 89, 3-(4-Methoxy-benzyl)-6,6-dimethyl-6,7-dihydro-pyrano[4,3-c]isoxazol-4-one] | 27 | 9800
CC1(C)Cc2noc(Cc3ccc(OCCCS(C)(=O)=O)cc3)c2C(=O)O1 [Cpd 90, 3-[4-(3-Methanesulfonyl-propoxy)-benzyl]-6,6-dimethyl-6,7-dihydro-pyrano[4,3-c]isoxazol-4-one] | 16 | 4600
CC1(C)Cc2noc(Cc3ccc(OCCS(C)(=O)=O)cc3)c2C(=O)O1 [Cpd 91, 3-[4-(2-Methanesulfonyl-ethoxy)-benzyl]-6,6-dimethyl-6,7-dihydro-pyrano[4,3-c]isoxazol-4-one] | 120 | 21000
CC1(C)Cc2noc(CC3CCOCC3)c2C(=O)O1 [Cpd 92, 6,6-Dimethyl-3-(tetrahydro-pyran-4-ylmethyl)-6,7-dihydro-pyrano[4,3-c] isoxazol-4-one] | 340 | 69000
CC1(C)Cc2noc(Cc3ccc(C(=O)N4CC[C@@H](O)C4)cc3)c2C(=O)O1 [Cpd 93, 3-[4-((R)-3-Hydroxy-pyrrolidine-1-carbonyl)-benzyl]-6,6-dimethyl-6,7-dihydro-pyrano[4,3-c]isoxazol-4-one] | 73 | 2600
CC1(C)Cc2noc(Cc3ccc(C(=O)NCCS(C)(=O)=O)cc3)c2C(=O)O1 [Cpd 94, 4-(6,6-Dimethyl-4-oxo-6,7-dihydro-4H-pyrano[4,3-c]isoxazol-3-ylmethyl)-N-(2-methanesulfonyl-ethyl)-benzamide] | 42 | 4300
CC1(C)Cc2noc(Cc3ccc(C(N)=O)cc3)c2C(=O)O1 [Cpd 95, 4-(6,6-Dimethyl-4-oxo-6,7-dihydro-4H-pyrano[4,3-c]isoxazol-3-ylmethyl)-benzamide] | 71 | 16000
CN(CCO)C(=O)c1ccc(Cc2onc3c2C(=O)OC(C)(C)C3)cc1 [Cpd 96, 4-(6,6-Dimethyl-4-oxo-6,7-dihydro-4H-pyrano[4,3-c]isoxazol-3-ylmethyl)-N-(2-hydroxy-ethyl)-N-methyl-benzamide] | 73 | 10000
CN1CCN(C(=O)c2ccc(Cc3onc4c3C(=O)OC(C)(C)C4)cc2)CC1=O [Cpd 97, 6,6-Dimethyl-3-[4-(4-methyl-3-oxo-piperazine-1-carbonyl)-benzyl]-6,7-dihydro-pyrano[4,3-c]isoxazol-4-one] | 170 | 11000
